# Results: ChEMBL document CHEMBL4334464, “From Phenylthiazoles to Phenylpyrazoles: Broadening the Antibacterial Spectrum toward Carbapenem-Resistant Bacteria” (J Med Chem, 2019)
# Active and inactive are the calls of the source. The calls are words filed in the database; no cut-off is given here.
# Assays:
# Klebsiella pneumoniae [1] = assay: Antibacterial activity against carbapenem-resistant Klebsiella pneumoniae ATCC BAA-1705 clinical isolates after 18 to 20 hrs in aerobic condition by CLSI-based broth microdilution assay; format: functional
# Escherichia coli [2] = assay: Antibacterial activity against Escherichia coli BW25113 clinical isolates after 18 to 20 hrs in aerobic condition by CLSI-based broth microdilution assay; format: functional
# Escherichia coli [3] = assay: Ratio of MBC to MIC for Escherichia coli BW25113 clinical isolates; format: functional
# Acinetobacter baumannii [4] = assay: Antibacterial activity against Acinetobacter baumannii NR 17785 clinical isolates after 18 to 20 hrs in aerobic condition by CLSI-based broth microdilution assay; format: functional
# Staphylococcus aureus [5] = assay: Antibacterial activity against Methicillin-sensitive Staphylococcus aureus NRS107 clinical isolates after 18 to 20 hrs in aerobic condition by CLSI protocol based broth microdilution assay; format: functional
# Pseudomonas aeruginosa [6] = assay: Ratio of MBC to MIC for Pseudomonas aeruginosa ATCC 9027 clinical isolates; format: functional
# Streptococcus pneumoniae [7] = assay: Antibacterial activity against cephalosporin-resistant Streptococcus pneumoniae ATCC 51916 clinical isolates after 18 to 20 hrs by CLSI-based broth microdilution assay; format: functional
# [8] = tested on: Staphylococcus epidermidis; assay: Antibacterial activity against Staphylococcus epidermidis NRS101 after 18 to 20 hrs in aerobic condition by CLSI-based broth microdilution assay; format: functional
# Staphylococcus aureus [9] = assay: Antibacterial activity against methicillin-resistant Staphylococcus aureus NRS384-USA300 clinical isolates after 18 to 20 hrs in aerobic condition by CLSI protocol based broth microdilution assay; format: functional
# Staphylococcus aureus [10] = assay: Antibacterial activity against linezolid-resistant/Methicillin-resistant Staphylococcus aureus NRS119 clinical isolates after 18 to 20 hrs in aerobic condition by CLSI protocol based broth microdilution assay; format: functional
# Pseudomonas aeruginosa [11] = assay: microbe, parasite or virus in culture; conditions: ATCC 25619
# Description: Antibacterial activity against Pseudomonas aeruginosa ATCC 25619 clinical isolates after 18 to 20 hrs in aerobic condition by CLSI-based broth microdilution assay
# Escherichia coli [12] = assay: Ratio of MBC to MIC for Escherichia coli ATCC 35150 clinical isolates; format: functional
# [13] = tested on: Staphylococcus epidermidis; assay: Ratio of MBC to MIC for Staphylococcus epidermidis NRS101 clinical isolates; format: functional
# Salmonella typhimurium [14] = assay: Ratio of MBC to MIC for Salmonella typhimurium ATCC 700720 clinical isolates; format: functional, Salmonella enterica subsp. enterica serovar Typhimurium
# Escherichia coli [15] = assay: Antibacterial activity against Escherichia coli ATCC 35150 clinical isolates after 18 to 20 hrs in aerobic condition by CLSI-based broth microdilution assay; format: functional
# Salmonella enterica [16] = assay: Antibacterial activity against Salmonella enterica NR-170 clinical isolates after 18 to 20 hrs in aerobic condition by CLSI-based broth microdilution assay; format: functional
# Staphylococcus aureus [17] = assay: Antibacterial activity against Methicillin-resistant Staphylococcus aureus USA700-NRS386 clinical isolates after 18 to 20 hrs in aerobic condition by CLSI protocol based broth microdilution assay; format: functional
# [18] = Antibacterial activity against Enterobacter cloacae subsp. cloacae ATCC BAA-1143 clinical isolates after 18 to 20 hrs in aerobic condition by CLSI-based broth microdilution assay; format: functional
# Pseudomonas aeruginosa [19] = assay: Ratio of MBC to MIC for Pseudomonas aeruginosa ATCC 25619 clinical isolates; format: functional
# Shigella flexneri = assay: Ratio of MBC to MIC for Shigella flexneri ATCC 9199 clinical isolates; format: functional
# Salmonella enteritidis [20] = assay: Antibacterial activity against Salmonella enteritidis ATCC 13076 clinical isolates after 18 to 20 hrs in aerobic condition by CLSI-based broth microdilution assay; format: functional, Salmonella enterica subsp. enterica serovar Enteritidis; conditions: Salmonella enterica
# Salmonella enterica [21] = assay: Ratio of MBC to MIC for Salmonella enterica NR-170 clinical isolates; format: functional
# Acinetobacter baumannii [22] = assay: Ratio of MBC to MIC for Acinetobacter baumannii NR 17786 clinical isolates; format: functional
# Klebsiella pneumoniae [23] = assay: Ratio of MBC to MIC for Klebsiella pneumoniae BAA-1706 after 18 to 20 hrs in aerobic condition by CLSI-based broth microdilution assay; format: functional
# Escherichia coli [24] = assay: Antibacterial activity against Escherichia coli ATCC 25922 clinical isolates after 18 to 20 hrs in aerobic condition by CLSI-based broth microdilution assay; format: functional
# Klebsiella pneumoniae [25] = assay: Ratio of MBC to MIC for Klebsiella pneumoniae BAA-1144 clinical isolates; format: functional
# Enterococcus faecium = assay: Ratio of MBC to MIC for vancomycin-resistant Enterococcus faecium ATCC 700221 clinical isolates; format: functional
# Staphylococcus aureus [26] = assay: Bactericidal activity against methicillin-resistant Staphylococcus aureus NRS123-USA400 clinical isolates at 5 times MIC incubated over 24 hrs followed by replating on tryptic soy agar plate and further incubated for 18 to 20 hrs by time kill assay; format: functional, organism-based
# [27] = tested on: Enterobacter cloacae subsp. cloacae; assay: Ratio of MBC to MIC for Enterobacter cloacae subsp. cloacae ATCC BAA-1143 clinical isolates; format: functional
# Klebsiella pneumoniae [28] = assay: Antibacterial activity against carbapenem-resistant Klebsiella pneumoniae ATCC BAA-2146 clinical isolates after 18 to 20 hrs in aerobic condition by CLSI-based broth microdilution assay; format: functional
# Escherichia coli [29] = assay: microbe, parasite or virus in culture; conditions: ATCC 1411
# Description: Antibacterial activity against Escherichia coli ATCC 1411 clinical isolates after 18 to 20 hrs in aerobic condition by CLSI-based broth microdilution assay
# Acinetobacter baumannii [30] = assay: Ratio of MBC to MIC for Acinetobacter baumannii NR 17785 clinical isolates; format: functional
# Escherichia coli [31] = assay: Inhibition of 6His tagged Escherichia coli UPPP expressed in Escherichia coli C41(DE3) cells preincubated for 15 mins followed by FPP substrate addition and measured after 20 mins by malachite green reagent based assay
# Listeria monocytogenes = assay: Ratio of MBC to MIC for Listeria monocytogenes ATCC 19111 clinical isolates; format: functional
# Escherichia coli [32] = assay: Ratio of MBC to MIC for Escherichia coli ATCC 1411 clinical isolates; format: functional
# Streptococcus pneumoniae [33] = assay: Ratio of MBC to MIC for cephalosporin-resistant Streptococcus pneumoniae ATCC 51916 clinical isolates; format: functional
# Staphylococcus aureus [34] = assay: Antibacterial activity against Methicillin-sensitive Staphylococcus aureus ATCC 6538 clinical isolates after 18 to 20 hrs in aerobic condition by CLSI protocol based broth microdilution assay; format: functional
# Pseudomonas aeruginosa [35] = assay: Ratio of MBC to MIC for Pseudomonas aeruginosa ATCC 15442 clinical isolates; format: functional
# Staphylococcus aureus [36] = assay: Antibacterial activity against Methicillin-resistant Staphylococcus aureus NRS385-USA500 clinical isolates after 18 to 20 hrs in aerobic condition by CLSI protocol based broth microdilution assay; format: functional
# Acinetobacter baumannii [37] = assay: Antibacterial activity against Acinetobacter baumannii ATCC BAA 1141 clinical isolates after 18 to 20 hrs in aerobic condition by CLSI-based broth microdilution assay; format: functional
# Escherichia coli [38] = assay: Antimicrobial activity against Escherichia coli JW55031 harboring deltatolC mutant after 18 to 20 hrs in aerobic condition by CLSI protocol based broth microdilution assay; format: functional
# Salmonella typhimurium [39] = assay: Antibacterial activity against Salmonella typhimurium ATCC 700720 after 18 to 20 hrs in aerobic condition by CLSI-based broth microdilution assay; format: functional, Salmonella enterica subsp. enterica serovar Typhimurium; conditions: Salmonella enterica
# Salmonella enteritidis [40] = assay: Ratio of MBC to MIC for Salmonella enteritidis ATCC 13076 clinical isolates; format: functional, Salmonella enterica subsp. enterica serovar Enteritidis
# Acinetobacter baumannii [41] = assay: Antibacterial activity against Acinetobacter baumannii ATCC 19606 clinical isolates after 18 to 20 hrs in aerobic condition by CLSI-based broth microdilution assay; format: functional; conditions: ATCC 19606 = CIP 70.34 = JCM 6841
compound,measurement,setting,value
CCCCCC#Cc1ccc(-n2ncc(/C(C)=N/NC(=N)N)c2C)cc1,MIC,Klebsiella pneumoniae [1],16 µg/mL
same,MIC,Escherichia coli [2],8 µg/mL
same,Ratio,Escherichia coli [3],>=1
same,MIC,Acinetobacter baumannii [4],8 µg/mL
same,MIC,Staphylococcus aureus [5],2 µg/mL
same,Ratio,Pseudomonas aeruginosa [6],>=1
same,MIC,Streptococcus pneumoniae [7],2 µg/mL
same,MIC,[8],2 µg/mL
same,MIC,Staphylococcus aureus [9],2 µg/mL
same,MIC,Staphylococcus aureus [10],2 µg/mL
same,MIC,Pseudomonas aeruginosa [11],32 µg/mL
same,Ratio,Escherichia coli [12],>=1
same,Ratio,[13],<3
same,Ratio,Salmonella typhimurium [14],>=1
same,MIC,Escherichia coli [15],8 µg/mL
same,MIC,Salmonella enterica [16],8 µg/mL
same,MIC,Staphylococcus aureus [17],2 µg/mL
same,MIC,[18],8 µg/mL
same,Ratio,Pseudomonas aeruginosa [19],>=1
same,Ratio,Shigella flexneri,>=1
same,MIC,Salmonella enteritidis [20],8 µg/mL
same,Ratio,Salmonella enterica [21],>=1
same,Ratio,Acinetobacter baumannii [22],>=1
same,Ratio,Klebsiella pneumoniae [23],>=1
same,MIC,Escherichia coli [24],8 µg/mL
same,Ratio,Klebsiella pneumoniae [25],>=1
same,Ratio,Enterococcus faecium,<3
same,Activity,Staphylococcus aureus [26],Active
same,Ratio,[27],> 1
same,MIC,Klebsiella pneumoniae [28],32 µg/mL
same,MIC,Escherichia coli [29],16 µg/mL
same,Ratio,Acinetobacter baumannii [30],>=1
same,inhibition,Escherichia coli [31],inactive
same,Ratio,Listeria monocytogenes,<3
same,Ratio,Escherichia coli [32],>=1
same,Ratio,Streptococcus pneumoniae [33],<3
same,MIC,Staphylococcus aureus [34],2 µg/mL
same,Ratio,Pseudomonas aeruginosa [35],>=1
same,MIC,Staphylococcus aureus [36],2 µg/mL
same,MIC,Acinetobacter baumannii [37],4 µg/mL
same,MIC,Escherichia coli [38],4 µg/mL
same,MIC,Salmonella typhimurium [39],8 µg/mL
same,Ratio,Salmonella enteritidis [40],>=1
same,MIC,Acinetobacter baumannii [41],4 µg/mL
C/C(=N\NC(=N)N)c1cnn(-c2ccc(C#Cc3ccccc3)cc2)c1C,MIC,Klebsiella pneumoniae [1],16 µg/mL
same,MIC,Escherichia coli [2],8 µg/mL
same,Ratio,Escherichia coli [3],>=1
same,MIC,Acinetobacter baumannii [4],4 µg/mL
same,MIC,Staphylococcus aureus [5],2 µg/mL
same,Ratio,Pseudomonas aeruginosa [6],>=1
same,MIC,Streptococcus pneumoniae [7],1 µg/mL
same,MIC,[8],2 µg/mL
same,MIC,Staphylococcus aureus [9],1 µg/mL
same,MIC,Staphylococcus aureus [10],1 µg/mL
same,MIC,Pseudomonas aeruginosa [11],32 µg/mL
same,Ratio,Escherichia coli [12],>=1
same,Ratio,[13],<3
same,Ratio,Salmonella typhimurium [14],>=1
same,MIC,Escherichia coli [15],8 µg/mL
same,MIC,Salmonella enterica [16],8 µg/mL
same,MIC,Staphylococcus aureus [17],2 µg/mL
same,MIC,[18],8 µg/mL
same,Ratio,Pseudomonas aeruginosa [19],>=1
same,Ratio,Shigella flexneri,>=1
same,MIC,Salmonella enteritidis [20],8 µg/mL
same,Ratio,Salmonella enterica [21],>=1
same,Ratio,Acinetobacter baumannii [22],>=1
same,Ratio,Klebsiella pneumoniae [23],>=1
same,MIC,Escherichia coli [24],4 µg/mL
same,Ratio,Klebsiella pneumoniae [25],>=1
same,Ratio,Enterococcus faecium,<3
same,Activity,Staphylococcus aureus [26],Active
same,Ratio,[27],> 1
same,MIC,Klebsiella pneumoniae [28],16 µg/mL
same,MIC,Escherichia coli [29],8 µg/mL
same,Ratio,Acinetobacter baumannii [30],>=1
same,inhibition,Escherichia coli [31],inactive
same,Ratio,Listeria monocytogenes,<3
same,Ratio,Escherichia coli [32],>=1
same,Ratio,Streptococcus pneumoniae [33],<3
same,MIC,Staphylococcus aureus [34],1 µg/mL
same,Ratio,Pseudomonas aeruginosa [35],>=1
same,MIC,Staphylococcus aureus [36],1 µg/mL
same,MIC,Acinetobacter baumannii [37],4 µg/mL
same,MIC,Escherichia coli [38],2 µg/mL
same,MIC,Salmonella typhimurium [39],8 µg/mL
same,Ratio,Salmonella enteritidis [40],>=1
same,MIC,Acinetobacter baumannii [41],4 µg/mL
C/C(=N\NC(=N)N)c1cnn(-c2ccc(C#CC3CCCC3)cc2)c1C,MIC,Klebsiella pneumoniae [1],8 µg/mL
same,MIC,Escherichia coli [2],8 µg/mL
same,Ratio,Escherichia coli [3],>=1
same,MIC,Acinetobacter baumannii [4],4 µg/mL
same,MIC,Staphylococcus aureus [5],1 µg/mL
same,Ratio,Pseudomonas aeruginosa [6],>=1
same,MIC,Streptococcus pneumoniae [7],1 µg/mL
same,MIC,[8],1 µg/mL
same,MIC,Staphylococcus aureus [9],1 µg/mL
same,MIC,Staphylococcus aureus [10],1 µg/mL
same,MIC,Pseudomonas aeruginosa [11],16 µg/mL
same,Ratio,Escherichia coli [12],>=1
same,Ratio,[13],<3
same,Ratio,Salmonella typhimurium [14],>=1
same,MIC,Escherichia coli [15],4 µg/mL
same,MIC,Salmonella enterica [16],8 µg/mL
same,MIC,Staphylococcus aureus [17],1 µg/mL
same,MIC,[18],8 µg/mL
same,Ratio,Pseudomonas aeruginosa [19],>=1
same,Ratio,Shigella flexneri,>=1
same,MIC,Salmonella enteritidis [20],4 µg/mL
same,Ratio,Salmonella enterica [21],>=1
same,Ratio,Acinetobacter baumannii [22],>=1
same,Ratio,Klebsiella pneumoniae [23],>=1
same,MIC,Escherichia coli [24],4 µg/mL
same,Ratio,Klebsiella pneumoniae [25],>=1
same,Ratio,Enterococcus faecium,<3
same,Activity,Staphylococcus aureus [26],Active
same,Ratio,[27],> 1
same,MIC,Klebsiella pneumoniae [28],16 µg/mL
same,MIC,Escherichia coli [29],8 µg/mL
same,Ratio,Acinetobacter baumannii [30],>=1
same,inhibition,Escherichia coli [31],inactive
same,Ratio,Listeria monocytogenes,<3
same,Ratio,Escherichia coli [32],>=1
same,Ratio,Streptococcus pneumoniae [33],<3
same,MIC,Staphylococcus aureus [34],0.5 µg/mL
same,Ratio,Pseudomonas aeruginosa [35],>=1
same,MIC,Staphylococcus aureus [36],0.5 µg/mL
same,MIC,Acinetobacter baumannii [37],4 µg/mL
same,MIC,Escherichia coli [38],2 µg/mL
same,MIC,Salmonella typhimurium [39],8 µg/mL
same,Ratio,Salmonella enteritidis [40],>=1
same,MIC,Acinetobacter baumannii [41],4 µg/mL
